Laboratory results taken from patent publication US8273378B2, “Dialysis solutions containing pyrophosphates” (Baxter International, Inc., priority 2007, dated 2012).
Where two headings read alike, the source gives them in different places.

Details: for stability of pyrophosphate on storage: 1 week at 40° C.; for stability of pyrophosphate on storage / loss of pyrophosphate during sterilization: all buffers; for change in the pH of the solutions: after sterilization and after storage for a week at 40° C.; for loss of pyrophosphate during sterilization: pH 6 and lower; for Recoveries: unsterilized
Description: Introduction: This study was designed to evaluate the stability of pyrophosphate salts with different buffers over a pH range from 4 to 10 during steam sterilization and after storage at 40° C. Two pyrophosphate salts and four buffers were obtained for the study. TRIS was added to all solutions as a pH stabilizer. Two of the solutions were also prepared without TRIS for comparison. The pH of the solutions was adjusted from pH 4-10 with 1N HCl or 1N NaOH. The solutions were sterilized at 121° C. for 40 minutes. Pyrophosphate concentration was determined before and after sterilization and after storage. The pH was also determined after sterilization and after storage.
The salts tested were: • 1. Disodium Pyrophosphate (Na2H2P2O7) • 2. Tetrapotassium Pyrophosphate (K4P2O7)
The study was performed using the sodium and potassium salts of pyrophosphate with the buffers shown below. Solutions were not prepared with bicarbonate below pH 7 because bicarbonate will decompose at a lower pH. • 1. Sodium Lactate • 2. Sodium Bicarbonate • 3. Sodium Citrate • 4. Sodium Pyruvate
The concentrations of the solution components are shown below in Table 2.

Row | SMILES | stability of pyrophosphate on storage (pH 7-10) | stability of pyrophosphate on storage (pH 7-10, except lactate without TRIS at pH 7) | change in the pH of the solutions | loss of pyrophosphate during sterilization | change in pH after sterilization (all solutions) | pH change after storage (storage for up to two months at 40° C., all solutions) | Recoveries (all buffers at pH 6 and higher) [%] | Recoveries (buffers other than citrate, pH 4 and 5) | stability during sterilization (with bicarbonate at pH 9-10) | stability during sterilization (pH 9) | pH change after storage (storage for 1 week)
1 | O=P([O-])([O-])OP(=O)(O)O.[Na+].[Na+] [Disodium Pyrophosphate] | remained unchanged | stable | no change in the pH | substantial loss of pyrophosphate | no change in pH | less than 0.1 pH unit | ≥ 95 | 90-102% | most stable | – | –
2 | O=P([O-])([O-])OP(=O)([O-])[O-].[K+].[K+].[K+].[K+] [Tetrapotassium Pyrophosphate] | – | – | no change in the pH | substantial loss of pyrophosphate | no change in pH | – | – | – | – | most stable | less than 0.1 pH unit
